One test has as its target T1, full length human HSP70 (Homo sapiens, UniProt P0DMV8).
T1 construct: Five μL of 30 nM full length human HSP70 in assay buffer
In words: HSP70 mediated ATPase assay (Transcreener ADP-FI). The class given is biochemical. The protocol: (§1) FIGS. 1A-1D show ATPase inhibition and direct binding of a novel HSP70 inhibitor. FIG. 1A: Compounds AP-3-97 and AP-4-139B are direct inhibitors of HSP70. HSP70 mediated ATPase activity was assessed using the TRANSCREENER® ADP-FI assay. Five microliters of 30 nM purified human HSP70 in assay buffer was added to test compounds for 30 minutes, followed by addition of excess ATP. After 15 minutes, reactions were stopped and fluorescence was assessed on a plate reader. Data are normalized to percent inhibition, where 100% is the value in the absence of HSP70, and 0% is the value in the presence of HSP70. Compounds shown include PET-16 (positive control) and the novel HSP70 inhibitors AP-3-97 and AP-4-139B. VY-3-277 was used as a negative control. FIG. 1B: Compound AP-4-139B binds HSP70. Whole cell extracts (WCE) from H1299 cells were incubated with 10 μM Biotin or with a Biotin-labeled variant of AP-4-139B (Biotin-AP-4-139B) for 5 hours. Biotin-AP-4-139B containing complexes were captured using NeutrAvidin resins and separated by SDS-PAGE. The Coomassie-stained protein band of approximately 70 kDa was excised and subjected to tryptic digestion and liquid chromatography-tandem mass spectrometry, and identified to be HSP70. FIG. 1C: H1299 cells were pre-treated with 10 μM of VY-3-277, PET-16, or AP-4-139B for 1 hour prior to the addition of 10 μM Biotin-AP-4-139B for 5 hours. Biotin-AP-4-139B containing complexes were captured by NeutrAvidin resins and immunoblotted using the indicated antibodies following SDS-PAGE. Whole cell extracts (WCE) were examined for the expression of HSP70 (input) and GRP75 (input) by Western blot analysis. FIG. 1D: Compound AP-4-139B directly binds purified human HSP70. […] Data were analyzed using the evaluation software from Biacore and the resulting sensograms were exported and re-plotted in GraphPad Prism.
HSP70 mediated ATPase activity was measured using the Transcreener® ADP-FI assay (BellBrook Labs). […] After 30 minutes, fluorescence at 560/620 nm was measured using the Envision plate reader. […]

The next test addresses T2, HSP70 (Homo sapiens, UniProt P0DMV8).
T2 construct: BAP-4-139B successfully precipitated a single protein from H1299 cells; endogenous in cells; host or cells: H1299 human lung carcinoma cells
In words: HSP70 competition assay in H1299 cells. The class given is binding. Particulars: 10 μM, one-hour pre-incubation. The protocol:
as §1, with “HSP70.” for “HSP70. FIG. 1C: H1299 cells were pre-treated with 10 μM of VY-3-277, PET-16, or AP-4-139B for 1 hour prior to the addition of 10 μM Biotin-AP-4-139B for 5 hours. Biotin-AP-4-139B containing complexes were captured by NeutrAvidin resins and immunoblotted using the indicated antibodies following SDS-PAGE. Whole cell extracts (WCE) were examined for the expression of HSP70 (input) and GRP75 (input) by Western blot analysis. FIG. 1D: Compound AP-4-139B directly binds purified human HSP70.”, “Prism. […]” for “Prism.”

T2 sequence (P0DMV8 whole entry): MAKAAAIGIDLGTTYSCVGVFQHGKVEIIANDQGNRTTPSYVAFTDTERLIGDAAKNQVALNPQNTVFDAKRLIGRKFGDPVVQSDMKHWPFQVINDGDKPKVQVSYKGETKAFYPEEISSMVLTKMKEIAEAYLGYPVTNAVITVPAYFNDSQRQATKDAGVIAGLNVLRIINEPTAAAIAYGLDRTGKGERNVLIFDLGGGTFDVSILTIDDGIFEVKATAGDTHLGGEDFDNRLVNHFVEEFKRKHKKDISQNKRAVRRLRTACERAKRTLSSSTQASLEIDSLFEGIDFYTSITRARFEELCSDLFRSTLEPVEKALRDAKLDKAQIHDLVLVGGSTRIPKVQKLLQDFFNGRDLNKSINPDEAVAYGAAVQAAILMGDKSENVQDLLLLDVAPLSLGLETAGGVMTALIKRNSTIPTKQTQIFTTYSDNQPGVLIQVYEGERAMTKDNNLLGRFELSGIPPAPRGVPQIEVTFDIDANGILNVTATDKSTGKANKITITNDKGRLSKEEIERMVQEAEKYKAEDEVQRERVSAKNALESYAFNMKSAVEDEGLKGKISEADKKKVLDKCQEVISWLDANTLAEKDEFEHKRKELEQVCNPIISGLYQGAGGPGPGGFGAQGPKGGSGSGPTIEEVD
T1 sequence (P0DMV8 whole entry): as above

For `c1ccc(-c2cn3nc(CCCCCC[P+](c4ccccc4)(c4ccccc4)c4ccccc4)sc3n2)cc1` [AP-4-139B, Triphenyl(6-(6-phenylimidazo[2,1-b][1,3,4]thiadiazol-2-yl)hexyl)phosphonium bromide], the “inhibition of HSP70 ATPase activity (in words)” value on full length human HSP70 is “markedly superior potency”. The “prevention of BAP-4-139B pull down of HSP70” value at HSP70 was “prevented the ability of BAP-4-139B to pull down HSP70”.

In the case of `C(#C[P+](c1ccccc1)(c1ccccc1)c1ccccc1)c1ccccc1` [PET-16, Triphenyl(phenylethynyl)phosphonium bromide, reference compound], the half-maximal inhibitory concentration (IC50) (usually the concentration at which inhibition is half-maximal) at full length human HSP70 is about 3 µM. The “prevention of BAP-4-139B pull down of HSP70” value on HSP70 was “prevented the ability of BAP-4-139B to pull down HSP70”.

Values taken from US12616753B2, “HSP70 inhibitors and methods of using same” (THE WISTAR INSTITUTE, priority 2020, dated 2026).
